Source: patent US9206196B1, “Derivatives of benzoxazino quinoline, benzoxazino isoquinoline and processes for their preparation” (Council of Scientific & Industrial Research, priority 2014, dated 2015)
pIC50: −log10 of the molar value.

test system: Plasmodium falciparum (3D7); test: Anti-malarial screen, parasite growth by SybrGreen staining; type: cell-based; conditions: dose response assay, test molecules from 10 μM to 1 nM, 60 hours incubation, SybrGreen read out
Experimental: Plasmodium falciparum (3D7; Malaria Research and Reference Reagent Resource Center ID NO: MRA-102) is cultured in the laboratory as per standard protocols. Briefly, P. falciparum is cultured using 2% hematocrit washed RBCs, separated from freshly collected human blood, in Roswell Park Memorial Institute (RPMI) medium containing glutamine, sodium bicarbonate and antibiotics. Parasites are synchronized using either 5% sorbitol treatment or by enriching late stage parasites using a 70% percol cushion. 200 μls of the diluted parasite culture at 2% parasitemia and 2% hematocrit, is added to each well in a 96 well plate pre-seeded with the compound of interest at the required concentration. In general, compounds being screened for the first time are tested at a single concentration of 10 μM to detect any effect they may have on parasite growth. The master stocks and dilutions of the compounds are prepared in cell culture grade DMSO. NOTE: DMSO only treatment control is done and the results are used for normalizing the data obtained from compound treatment. All compounds are plated in triplicates. Each 96 well plate also includes negative control (compound untreated culture) and positive control (standard anti-malarial treated culture). Standard anti-malarials used are chloroquine, artemisinine and atovaquone, each at 1 μM concentration. After plating, the culture is incubated in standard growth condition for 60 hours, after which the cultures are processed for testing the effect of compounds on parasite growth as given below. We have standardized a modified SybrGreen dye based staining protocol (Plouffe D et. al. in Proc Natl Acad Sci, 2008, 105(26), 9059-64) for estimating parasite growth. SybrGreen dye binds to DNA and only the DNA bound dye gives a specific fluorescence emission ([…]) when excited ([…]). Since only the parasites have DNA (as RBCs are devoid of nucleus), the SybrGreen signal is a direct indictor of parasite growth. We have standardized a plate reader based read out assay for quantifying relative parasite growth (or conversely % inhibition of growth) in untreated, standard anti-malarial treated and test molecules treated P. falciparum cultures. 25 μl of 10× staining solution (0.5% Triton X100 & 10× SybrGreen dye in phosphate buffered saline) is added to each sample in 96 well plate, mixed and incubated for 30 min before taking readings. Data obtained is then tabulated to compare parasite growth between untreated, standard anti-malarial treated and compound treated parasite cultures. Compounds showing greater than 80% reduction in parasite growth are selected from this primary screening for carrying out dose response analysis using the respective test molecules from 10 μM to 1 nM. Data from this experiment is used for the calculation of IC50 values for the respective test molecules. Data from the preliminary screen (at 10 μM only) is shown in FIG. 1 and data from the dose response experiment is shown in FIG. 2.

| Compound | pIC50 |
| --- | --- |
| CC1=C[C@@H]2O[C@H](c3ccc(Cl)cc3)c3ccccc3N2c2ccccc21 | 5.42 |
| Cc1cc2c(cc1C)N1c3ccccc3C=C[C@@H]1O[C@@H]2c1ccc(Cl)cc1 | 5.45 |
| C1=CC2OC(c3ccccc3)(c3ccccc3)c3ccccc3N2c2ccccc21 (stereo not drawn) | 5.41 |
| O=C1C=CC2(C=C1)OC1C=Cc3ccccc3N1c1ccccc12 (stereo not drawn) | 5.77 |
| O=C(c1ccccc1)C1(c2ccccc2)OC2C=Cc3ccccc3N2c2ccccc21 (stereo not drawn) | 5.58 |
| O=C1C(O)=C([C@H]2CC[C@H](c3ccc(Cl)cc3)CC2)C(=O)c2ccccc21 [Atovaquone, reference compound] | 8.15 |
